In the oligonucleotide strings, read from the 5' end, every base follows the letter of its sugar. An asterisk marks phosphorothioate; unmarked linkages are phosphodiester. Other units and linkages are bracketed, terminal groups are in braces. A string of capitals states the bases alone. d = 2'-deoxy (DNA); m = 2'-O-methyl
Biological target: T1, human TLR7 (Homo sapiens, UniProt Q9NYK1)
T1 construct: HA; host or cells: 293XL-hTLR7-HA (HEK293)
T1 sequence (Q9NYK1 27-1049): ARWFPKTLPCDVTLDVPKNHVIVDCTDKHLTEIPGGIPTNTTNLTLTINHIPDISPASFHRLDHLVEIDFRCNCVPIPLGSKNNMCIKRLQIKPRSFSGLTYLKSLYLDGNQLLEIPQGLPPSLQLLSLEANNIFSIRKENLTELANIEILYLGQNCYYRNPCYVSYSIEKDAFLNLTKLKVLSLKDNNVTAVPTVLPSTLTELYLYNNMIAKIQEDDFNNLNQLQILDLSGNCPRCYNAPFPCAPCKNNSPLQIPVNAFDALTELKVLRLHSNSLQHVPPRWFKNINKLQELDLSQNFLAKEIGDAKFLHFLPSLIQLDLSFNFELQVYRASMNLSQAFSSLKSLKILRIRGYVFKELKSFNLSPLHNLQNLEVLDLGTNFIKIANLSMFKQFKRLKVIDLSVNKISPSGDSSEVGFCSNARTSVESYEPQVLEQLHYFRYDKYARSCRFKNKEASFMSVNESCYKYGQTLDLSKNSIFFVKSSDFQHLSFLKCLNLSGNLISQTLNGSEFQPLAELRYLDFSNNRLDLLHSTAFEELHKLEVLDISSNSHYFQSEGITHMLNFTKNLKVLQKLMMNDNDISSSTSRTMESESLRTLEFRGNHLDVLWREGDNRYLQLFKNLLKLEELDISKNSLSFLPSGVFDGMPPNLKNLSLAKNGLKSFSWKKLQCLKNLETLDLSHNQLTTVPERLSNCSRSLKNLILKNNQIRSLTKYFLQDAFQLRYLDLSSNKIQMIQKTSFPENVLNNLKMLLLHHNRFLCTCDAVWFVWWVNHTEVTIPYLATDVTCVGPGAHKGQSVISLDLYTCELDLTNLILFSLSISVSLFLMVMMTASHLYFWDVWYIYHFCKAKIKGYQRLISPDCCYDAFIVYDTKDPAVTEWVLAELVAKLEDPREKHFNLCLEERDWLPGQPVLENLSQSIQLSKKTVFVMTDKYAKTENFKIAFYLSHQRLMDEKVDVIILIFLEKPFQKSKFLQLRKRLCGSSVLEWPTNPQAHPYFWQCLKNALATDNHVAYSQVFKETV
Assay: HEK-TLR7 NF-κB-luciferase reporter, R848 stimulation
Format: cell-based
Details: for TLR7 100 nM (averaged NF-κB-Luciferase level relative to R848 condition): ASO 100 nM; for TLR7 100 nM (averaged NF-κB-Luciferase level relative to R848 condition) / TLR7 500 nM (averaged NF-κB-Luciferase level relative to R848 condition): relative to R848 only, given as fraction; for TLR7 500 nM (averaged NF-κB-Luciferase level relative to R848 condition): ASO 500 nM; for TLR7 400 nM: 3mer 2'OMe ASO at 400 nM; for TLR7 400 nM / TLR7 2 uM / inhibition of TLR7 by 3-mer 2′OMe oligos (in words) / IC50: HEK-TLR7; for TLR7 400 nM / TLR7 2 uM: value relative to Ligand only = 1.000, NT = 0.000; for TLR7 2 uM: 3mer 2'OMe ASO at 2 uM; for inhibition of TLR7 by 3-mer 2′OMe oligos (in words): 400 nM and 2 μM 3-mer, ~30 min, R848 1 μg/ml; for IC50: oligo ~30-50 min before 1 μg/ml R848 overnight, read-out: IC50 (R848 sensing by TLR7)
Protocol: In such examples, inhibition of TLR7 activity can be identified by observation of an overall decreased TLR7 response of the cell population, or a lower proportion of cells having TLR7-positive activity as compared to positive control condition in which cells are treated with TLR7 agonist in the absence of the oligonucleotide (or in the presence of an appropriate control inhibitory agent). In one example, 293XLhTLR7 (referred to as HEK-TLR7) cells are transfected with pNF-κB-Luc4 reporter, incubated with an oligonucleotide, and then stimulated with R848. TLR7 activity can be determined by a luciferase assay, which measures activated NF-κB by luminescence. TLR7 activity can also be analysed by measuring cytokine levels, for example by ELISA. […] TLR7 activity may then be assessed by the gene or protein expression of TLR7-responsive genes, such as Tnfα and Oas3.
For cGAS stimulations, cells were treated for indicated duration with ASOs, prior to transfection with ISD70 (human cells) or ISD45 (mouse cells) (the ASOs were not washed off prior to ISD transfection unless otherwise indicated). The cGAS ligands ISD45 (Stetson and Medzhitov, 2006) and ISD70 (also known as VACV-70 (Unterholzner et al., 2010)) (Table 1) were resuspended as follows: 5 1d of sense and 5 μl of antisense strands at 10 μg/μl were added to 90 μl PBS under sterile conditions, heated at 75° C. for 30 min, prior to letting cool down at room temperature and aliquoting (stock at 1 μg/1 l). The ISDs were transfected at a concentration of […] at a ratio of 1 μg:1 μl with Lipofectamine 2000 in Opti-MEM (Thermo Fisher Scientific). HEK-TLR3, HEK-TLR7 and […] were treated with indicated concentration of ASOs for 20-50 min, prior to stimulation with poly(I:C) (Invivogen), R848 (Invivogen), Motolimod (MedChemExpress) and the Class B CpG oligonucleotides ODN 2006 (synthesised by IDT and resuspended in RNase-free TE buffer [Table 1]), respectively. The TLR2/1 agonist PAM3CSK4 (Invivogen), the TLR4 agonist lipopolysaccharide (Invivogen), the Class B CpG oligonucleotides ODN 1826 (synthesised by IDT and resuspended in RNase-free TE buffer), the mouse Sting agonist DMXAA (Cayman) and the human STING agonist (compound #3 from (Raanjulu et al., 2018), referred to as GSK herein—kind gift from Cancer Therapeutics CRC, Australia) were used at indicated concentrations. Aspirin (Sigma—A2093) was resuspended in pure medium to 10 mM, filter sterilised and added to the cells at 2 mM final. All ASOs were synthesised by Integrated DNA Technologies (IDT), and resuspended in RNase-free TE buffer, pH 8.0 (Thermo Fisher Scientific). Cell viability was assessed by adding 1× fresh resazurin solution to the wells (10λ solution made up with 7 mg resazurin [Sigma—R7017] dissolved in 3.5 ml PBS, sterile filtered at […]) for 4 h, prior to reading at with a Fluostar OPTIMA (BMG LABTECH) plate-reader (fluorescence: Excitation 535 nm, Emission 590); wells with medium only and 1× resazurin were used as blanks.
Following transfection, the cells were collected from the 6-wells and aliquoted into 96-wells, just before ASO and overnight TLR stimulation (as above described). Similarly, the LL171 cells expressing and ISRE-Luc reporter were treated overnight.

| Substance | TLR7 100 nM (averaged NF-κB-Luciferase level relative to R848 condition) | TLR7 500 nM (averaged NF-κB-Luciferase level relative to R848 condition) | TLR7 400 nM | TLR7 2 uM | inhibition of TLR7 by 3-mer 2′OMe oligos (in words) | IC50 |
| --- | --- | --- | --- | --- | --- | --- |
| GGTTACGGCTCAGTAT (antisense; LNA-modified, pattern not given here) [CAMSAP1-4295 LNA KL] | 0.438 | 0.140 |  |  |  |  |
| dG*dC*dC [GCC] |  |  | 1.360 | 0.645 |  |  |
| dA*dG*dA (DNA AGA; listed as DNA, chemistry not fully specified) |  |  | 1.219 | 0.795 |  |  |
| mGmUmA (GUA; all 2'-O-methyl, backbone not given here; further chemistry not fully specified) [shortMut1-3b] |  |  | 0.702 | 0.239 | inhibiting TLR7 |  |
| GGCTGGAATCCGAGTT (antisense; LNA-modified, pattern not given here) [EGFR-4705 LNA KL] | 0.417 | 0.041 |  |  |  |  |
| CUC (mC*mU*mC) |  |  | 1.288 | 0.984 |  |  |
| T*T*A* G*G*G* T*T*A* G*G*G* T*T*A* G*G*G* T*T*A* G*G*G [A151, reference compound] |  |  |  |  |  | 132 nM |
| UAC (mU*mA*mC) |  |  | 1.161 | 1.003 |  |  |
| CUA (mC*mU*mA) |  |  | 1.388 | 0.953 |  |  |
| dG*dC*dG [GCG] |  |  | 1.185 | 0.627 |  |  |
| mUmGmA (mU*mG*mA) [UGA, 3-mer 2′OMe PS oligo] |  |  | 1.126 | 0.831 |  |  |
| dC*dA*dA (CAA; listed as DNA, chemistry not fully specified) |  |  | 1.175 | 0.787 |  |  |
| AUG (mA*mU*mG) |  |  | 0.987 | 0.602 |  |  |
| GTCTTGGCTTCGTGGA (antisense; LNA-modified, pattern not given here) [MB21D1-522 LNA V1] | 0.652 | 0.056 |  |  |  |  |
| mAmUmC (mA*mU*mC) [AUC, 3-mer 2′OMe PS oligo] |  |  | 0.950 | 0.430 | inhibiting TLR7 |  |
| GCATCCACCACGTCGT (antisense; LNA-modified, pattern not given here) [EGFR-3267 LNA V1] | 0.555 | 0.085 |  |  |  |  |
| dA*dA*dC (DNA AAC; listed as DNA, chemistry not fully specified) |  |  | 1.019 | 0.770 |  |  |
| dC*dC*dC (CCC; listed as DNA, chemistry not fully specified) |  |  | 1.196 | 0.993 |  |  |
| TCCAACACTTCGTGGG (antisense; LNA-modified, pattern not given here) [HPRT LNA-669 V1] | 0.318 | 0.249 |  |  |  |  |
| GTGTCTGGAAGCTTCC (antisense; LNA-modified, pattern not given here) [CTNN2B-809 LNA V1] | 0.355 | 0.067 |  |  |  |  |
| CCATCCATGAGGTCCT (antisense; LNA-modified, pattern not given here) [CTNN2B-2545 LNA V1] | 0.992 | 0.644 |  |  |  |  |
| AUU (mA*mU*mU) |  |  | 1.221 | 0.700 |  |  |
| CGU (mC*mG*mU) |  |  | 1.372 | 0.963 |  |  |
| UGU (mU*mG*mU) |  |  | 1.108 | 0.984 |  |  |
| TGCACACTTCGTACCC (antisense; LNA-modified, pattern not given here) [CAMSAP1-4916 LNA V1] | 0.806 | 0.299 |  |  |  |  |
| GTCCCCTGTTGACTGG (antisense; LNA-modified, pattern not given here) [HPRT LNA-489 KL] | 0.557 | 0.123 |  |  |  |  |
| mGmAmU (mG*mA*mU) [GAU, 3-mer 2′OMe PS oligo] |  |  | 1.406 | 0.580 | selectively inhibited TLR7 sensing | 300 nM |
| ACACTTCGTGGGGTCC (antisense; LNA-modified, pattern not given here) [HPRT LNA-665 V1] | 0.548 | 0.086 |  |  |  |  |
| UCC (mU*mC*mC) |  |  | 1.166 | 0.958 |  |  |
| UCU (mU*mC*mU) |  |  | 1.196 | 0.956 |  |  |
